The Ki is a measure of affinity in units of concentration, obtained from inhibition or displacement. The low end stands for higher affinity, the high end for lower affinity.

Molecules are shown by their SMILES.

Results on two compounds are retold here after paper PMC8541628, “Development of Novel Quinoline-Based Sulfonamides as Selective Cancer-Associated Carbonic Anhydrase Isoform IX Inhibitors” (International Journal of Molecular Sciences, 2021).

For one assay, the system named is active caspase-3. Put plainly: active caspase-3 level (ELISA) in MDA-MB-231 cells. Type of assay: cell-based, human. Particulars: 24 h incubation. The procedure: (§1) The levels of two members of Bcl-2 family proteins, the anti-apoptotic Bcl-2 protein, and the counteracting pro-apoptotic Bax protein, as well as the level of active caspase-3 (a key executioner protease) in MDA-MB-231 and MCF-7 cells have been assessed after incubation with QBS 11c and 13b for 24 h.
(§2) All adopted procedures for the conducted in vitro biological assays were performed as described earlier; CA (stopped-flow), cytotoxicity (MTT [37, 38]), and assessment of apoptotic markers assays, as well as induction of hypoxia with cobalt chloride, and were mentioned in the Supporting Materials. […]
(§3) 3. Assessment of Apo ptotic Markers Levels
(§4) The levels of the pro-apoptotic markers (Bax and active caspase-3) as well as the anti-apoptotic marker Bcl-2 were determined using ELISA kits; Human Bax ELISA Kit (EIA-4487) DRG® Instruments, Bcl-2 ELISA Kit (99–0042), Zymed® Laboratories, Invitrogen Immunodetection, and Human Caspase-3 (active) ELISA Kit (KHO1091) Invitrogen®, per the manufacturer’s instructions. Breast cancer MDA-MB-231 and MCF-7 cells were cultured as a monolayer in T-25 flasks and were seeded to attain 30% confluency prior to treatment. Cells were then treated separately with MBFS 11b at its IC50 concentration for 24 h. At the end of treatment, cells were collected via trypsinization and centrifuged at 10,000 rpm. The pellet was then rinsed with PBS and lysed in RIPA lysis buffer at 4 °C for 45 min, then centrifuged at 14,000 rpm for 20 min to remove the cellular debris. Lysates were then collected and stored at −80 °C for later protein determination using Pierce BCA Protein Assay Kit according to manufacturer’s recommendations.
(§5) The cell lysate was diluted 10 times, and 100 μL ([…]) was added to the wells of […] separate microtiter plates for the three ELISA kits th at were pre-coated with primary antibodies specific to Bax, Bcl-2, and caspase-3 proteins, respectively. A secondary biotin-linked antibody specific to the protein captured by the primary antibody was further added to bind the […]
(§6) captured protein, forming a “sandwich” of specific antibodies around the desired protein in the cell lysate. The streptavidin-HRP complex was then used to bind the biotin-linked secondary antibody through its streptavidin portion. The HRP domain reacted with the added TMB substrate to form a colored product that measured at 450 nm by a plate reader ChroMate-4300 after the reaction was terminated via the addition of stop solution. […]
The ligand 3D structures were prepared by Maestro and their ionization states was checked with Epik at pH 7.4±0.5 then they were subjected to energy minimization using OPLS3 force field in Macromodel with a maximum number of 2500 conjugate gradient iteration and a convergence of 0.05 kcal mol−1 A−1. […]
A general note: An ELISA detects its analyte on a solid surface through an enzyme-linked reagent.

The subject of the next assay is Bcl-2. Put plainly: Bcl-2 expression level (ELISA) in MCF-7 cells. Type of assay: cell-based, human. The conditions noted are these: for Bcl-2 / Bcl-2, folds of control: 24 h incubation; for suppression of the expression level of Bcl-2 protein: compared to the untreated control. The method, then:
as §1, §2
monolay er. Cell monolay ers were treated in quadrates with vehicle (DMSO, 0.1% v/v), test samples or Adriamycin as positive control for an exposure time of 72 h. At the end of exposure, MTT solution in PBS (5 mg/ml) was then added to all well including no cell blank and left to incubate for 90 min. The formation of formazan crystals were visually confirmed using phase contract microscopy. DMSO (100 µl/well) was added to dissolve the formazan crystals with shaking for 10 min after which the absorbance was read at 590 nm against no cell blanks on a FLuo Star Optima microplate reader (BMG technologies, Germany). Cell proliferation was calculated comparing the OD values of the DMSO control wells and those of the samples represented as % proliferation to the control. Dose-response experiment was performed on samples producing > or =50% loss of cell proliferation using five serial 2-fold dilutions (50, 25, 12.5, 6.25 and 3.125 µM) of the sample. IC50 values (concentration of sample causing 50% loss of cell proliferation of the vehicle control) were calculated using non-linear regression curve fitting of the dose response plots on GraphPad Prism V.6.0 software.
as §3, §4, §5, §6
The ligand 3D structures were prepared by Maestro and their ionization states was checked with Epik at pH 7.4±0.5 then they were subjected to energy minimization using OPLS3 force field in Macromodel with a maximum number of 2500 conjugate gradient iteration and a convergence of 0.05 kcal mol−1 A−1. Glide with default […]

In the next assay the target is hCA I (Homo sapiens, UniProt P00915). Put plainly: stopped flow carbon dioxide hydrase assay, hCA I.
For a further assay, the target named is hCA II (Homo sapiens, UniProt P00918). Put plainly: stopped flow carbon dioxide hydrase assay, hCA II.
The next assay concerns the target hCA XII (Homo sapiens, UniProt O43570). The assay can be described thus: stopped flow carbon dioxide hydrase assay, hCA XII. Particulars: for Selectivity ratio I/XII: hCA XII over hCA I; for Selectivity ratio II/XII: hCA XII over hCA II.

Chain of hCA XII (O43570 25-354): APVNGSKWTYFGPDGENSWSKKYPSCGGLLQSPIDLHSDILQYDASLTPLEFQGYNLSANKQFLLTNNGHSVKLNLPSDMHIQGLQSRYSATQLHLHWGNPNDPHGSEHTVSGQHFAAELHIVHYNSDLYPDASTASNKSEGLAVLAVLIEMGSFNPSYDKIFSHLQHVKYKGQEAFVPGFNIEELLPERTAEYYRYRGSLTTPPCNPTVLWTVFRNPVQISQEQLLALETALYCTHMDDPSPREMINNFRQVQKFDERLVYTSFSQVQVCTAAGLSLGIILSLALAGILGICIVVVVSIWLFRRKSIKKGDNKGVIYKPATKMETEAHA
Chain of hCA I (P00915 whole entry): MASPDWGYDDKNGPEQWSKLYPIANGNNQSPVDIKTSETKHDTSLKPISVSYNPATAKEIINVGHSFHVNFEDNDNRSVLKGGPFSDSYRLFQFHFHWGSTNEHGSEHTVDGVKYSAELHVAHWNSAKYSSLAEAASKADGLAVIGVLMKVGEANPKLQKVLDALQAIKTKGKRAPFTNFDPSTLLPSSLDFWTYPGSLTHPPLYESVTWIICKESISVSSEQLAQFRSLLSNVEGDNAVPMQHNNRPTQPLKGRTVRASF

In the case of `NS(=O)(=O)c1cccc(Nc2ccnc3ccc(Cl)cc23)c1` [11c, 3-((6-chloroquinolin-4-yl)amino)benzenesulfonamide], in the assay with active caspase-3, the “Active Caspase-3” value is given as 12.69 ± 1.14 Pg/mg of Total Protein and the “Active Caspase-3, folds of control” value is 4.93 folds of control. In the assay with Bcl-2, the Bcl-2 is reported as 7.29 ± 0.15 Pg/mg of Total Protein; the “Bcl-2, folds of control” value is 0.79 folds of control; the “suppression of the expression level of Bcl-2 protein” value came to 21%. The Ki at hCA I amounted to 442 nM. Also, on hCA II, the Ki turned out to be 155 nM. Moreover, on hCA XII, the affinity corresponds to a Ki of 55.3 nM, the “Selectivity ratio I/XII” value is listed as 8.0 and the “Selectivity ratio II/XII” value was 2.8.

`COc1ccc2nccc(Nc3ccc(S(N)(=O)=O)cc3)c2c1` [13b, 4-((6-methoxyquinolin-4-yl)amino)benzenesulfonamide]: in the assay on active caspase-3, the “Active Caspase-3” value is reported as 9.32 ± 0.73 Pg/mg of Total Protein and the “Active Caspase-3, folds of control” value is recorded as 3.62 folds of control. In addition, in the assay with Bcl-2, the Bcl-2 is on record as 5.72 ± 0.13 Pg/mg of Total Protein; the “Bcl-2, folds of control” value was 0.62 folds of control; the “suppression of the expression level of Bcl-2 protein” value worked out at 38%. Besides, at hCA I, the Ki worked out at 92.1 nM. At hCA II, this compound gave a Ki of 58.4 nM. For the same compound, on hCA XII, the Ki was determined as 13.2 nM, the “Selectivity ratio I/XII” value was 7.0 and the “Selectivity ratio II/XII” value is recorded as 4.4.
